The values that follow come from PubChem BioAssay (NCI).

“And” between values parts separate entries of the source, which are not always exact repeats. Equal values may be shown once.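 Step 1: Grow cells in 96-well plates. Step 2: Expose to compound for 48 hours at 5 concentrations. Step 3: Interpolate endpoints linearly; if unreached, use highest concentration. Here, GI50 denotes the concentration required for 50% inhibition of growth. TGI is the concentration that stops growth completely.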

Test systems include MOLT-4 leukemia; NCI/ADR-RES ovarian; OVCAR-8 ovarian; SF-295 CNS; SK-MEL-2 melanoma; SK-MEL-5 melanoma; SNB-75 CNS; SR leukemia; TK-10 renal; U251 CNS.
What all share (experiment): DTP human tumour cell line panel, 48 h

By GI50 is commonly meant the concentration at which growth is held to half of that of the control. The term TGI denotes the concentration at which net growth stops. Low readings indicate greater sensitivity of the cells, high ones lower sensitivity of the cells. With `Nc1ncc(-c2cccc(S(N)(=O)=O)c2)c2scc(-c3ccc(F)c(Cl)c3)c12`, the GI50 was 5.35 µM in the test on MOLT-4 leukemia; 7140 nM with NCI/ADR-RES ovarian; 6.38 µM in the test on OVCAR-8 ovarian; 5.66 µM in the test on SF-295 CNS; 5.88 µM with SK-MEL-2 melanoma; 4 µM with SK-MEL-5 melanoma. Moreover, the GI50 in the test on SNB-75 CNS was 6110 nM; in the test on SR leukemia, 7.12 µM; with TK-10 renal, 6.58 µM; with U251 CNS, 6.77 µM. Moreover, the concentration for total growth inhibition (TGI) in the test with MOLT-4 leukemia is above 19.2 µM; in the test with NCI/ADR-RES ovarian, above 25 µM; in the test with OVCAR-8 ovarian, above 22.6 µM; with SF-295 CNS, 13.8 µM; in the test with SK-MEL-2 melanoma, 10.9 µM; in the test with SK-MEL-5 melanoma, 7.46 µM. Further, the TGI with SNB-75 CNS was above 23000 nM; with SR leukemia, above 15.9 µM; in the test on TK-10 renal it was 16.4 µM; in the test with U251 CNS it was above 17.5 µM.
On to `CC(O)c1cc(C(=O)N[C@@H](C)Cn2ccc(-c3ccc(C#N)c(Cl)c3)n2)n[nH]1` (stereo partly specified), for which the GI50 is 0.37 µM in the test with MOLT-4 leukemia; above 100000 nM with NCI/ADR-RES ovarian; 28.7 µM with OVCAR-8 ovarian; 23.9 µM in the test on SF-295 CNS; 46.6 µM in the test on SK-MEL-2 melanoma; 15.2 µM with SK-MEL-5 melanoma. Besides, the GI50 in the test with SNB-75 CNS is 52400 nM; in the test with SR leukemia, 8.06 µM; in the test with TK-10 renal it was above 100 µM; in the test on U251 CNS, above 100 µM. In addition, the concentration for total growth inhibition (TGI) in the test with MOLT-4 leukemia was 5.15 µM; with NCI/ADR-RES ovarian, above 100 µM; in the test on OVCAR-8 ovarian, above 100 µM; with SF-295 CNS, above 100 µM; in the test with SK-MEL-2 melanoma, above 100 µM; in the test on SK-MEL-5 melanoma it was 48.3 µM. Also, the TGI is above 100000 nM with SNB-75 CNS, above 100 µM in the test on SR leukemia, above 100 µM in the test on TK-10 renal and above 100 µM in the test on U251 CNS.
For the compound `COc1cc(-c2csc(NC(=O)Nc3cc(Cl)cc(Cl)c3)n2)cc(OC)c1OC`, the GI50 is 3.9 µM in the test with MOLT-4 leukemia; 1850 nM in the test with NCI/ADR-RES ovarian; 1.84 µM with OVCAR-8 ovarian; 1.55 µM with SF-295 CNS; 2.61 µM in the test with SK-MEL-2 melanoma; 3.15 µM in the test with SK-MEL-5 melanoma. The GI50 in the test on SNB-75 CNS is 1490 nM; with SR leukemia, 2 µM; with TK-10 renal it was 1.73 µM; in the test with U251 CNS it was 1.68 µM. Further, the TGI in the test with MOLT-4 leukemia was above 100 µM; in the test on NCI/ADR-RES ovarian, 3.94 µM; in the test on OVCAR-8 ovarian it was 3.87 µM; in the test on SF-295 CNS, 3.01 µM; in the test on SK-MEL-2 melanoma it was 7.97 µM; in the test on SK-MEL-5 melanoma, 11.2 µM. Also, the TGI was 2880 nM with SNB-75 CNS, 6.61 µM in the test on SR leukemia, 3.16 µM in the test with TK-10 renal and 3.15 µM with U251 CNS.
For the compound `O=NN(CCCl)C(=O)NC1CCC(CC2CCC(NC(=O)N(CCCl)N=O)CC2)CC1` (stereo unspecified), the TGI in the test on MOLT-4 leukemia was 47.8 µM; with NCI/ADR-RES ovarian it was 77.9 µM; with OVCAR-8 ovarian, above 31.6 µM; with SF-295 CNS it was above 79.2 µM; in the test on SK-MEL-2 melanoma, above 100 µM; in the test with SK-MEL-5 melanoma, above 100 µM. Further, the TGI was 42500 nM in the test on SNB-75 CNS, 88.7 µM in the test with SR leukemia, above 100 µM in the test with TK-10 renal and 46.2 µM with U251 CNS.
Regarding `O=C(O)Cn1cc([N+](=O)[O-])c(=O)c2ccccc21`, the TGI in the test on MOLT-4 leukemia, in the test with NCI/ADR-RES ovarian, in the test on OVCAR-8 ovarian, in the test with SF-295 CNS, in the test on SK-MEL-2 melanoma and with SK-MEL-5 melanoma was above 100 µM in each case. In addition, the TGI in the test with SNB-75 CNS was above 100000 nM; in the test with SR leukemia, above 100 µM; in the test with TK-10 renal, above 100 µM; in the test on U251 CNS, above 100 µM.
Take `CC(=O)c1cc(O)c2ccccc2c1O`: the GI50 in the test with MOLT-4 leukemia is 33.6 µM; in the test on NCI/ADR-RES ovarian, 24500 nM; in the test on OVCAR-8 ovarian it was 20.2 µM; with SF-295 CNS, 18.5 µM; with SK-MEL-2 melanoma, 20.4 µM; in the test with SK-MEL-5 melanoma, 16.3 µM. Also, the GI50 in the test on SNB-75 CNS is 15700 nM; in the test with SR leukemia it was 28 µM; with TK-10 renal, 17 µM; with U251 CNS it was 18.6 µM. Moreover, the TGI stood at 99.4 µM with MOLT-4 leukemia; 67.5 µM in the test with NCI/ADR-RES ovarian; 38.6 µM in the test with OVCAR-8 ovarian; 38.8 µM in the test on SF-295 CNS; 38.7 µM in the test with SK-MEL-2 melanoma; 30.2 µM with SK-MEL-5 melanoma. The TGI with SNB-75 CNS is 32800 nM; with SR leukemia, above 100 µM; with TK-10 renal, 33.1 µM; with U251 CNS, 33.6 µM.
For `CS(=O)(=O)N(c1cc(-c2ccc3ncnc(Nc4cccc(Cl)c4)c3c2)cnc1Cl)S(C)(=O)=O`, the GI50 in the test on MOLT-4 leukemia was 0.334 µM; with NCI/ADR-RES ovarian, 1500 nM; in the test with OVCAR-8 ovarian, 1.58 µM; with SF-295 CNS it was 0.542 µM; with SK-MEL-2 melanoma, 0.469 µM; with SK-MEL-5 melanoma, 0.306 µM. Also, the concentration for 50% growth inhibition (GI50) with SNB-75 CNS was 40.6 nM; in the test on SR leukemia, 0.696 µM; with TK-10 renal, 0.145 µM; in the test on U251 CNS, 0.782 µM. In addition, the TGI with MOLT-4 leukemia was 1.31 µM; with NCI/ADR-RES ovarian, 12.4 µM; in the test on OVCAR-8 ovarian it was above 100 µM; in the test on SF-295 CNS, 3.17 µM; in the test on SK-MEL-2 melanoma it was 2.09 µM; with SK-MEL-5 melanoma, 1.41 µM. The TGI came out at 641 nM with SNB-75 CNS, 6.68 µM in the test on SR leukemia, 0.985 µM in the test on TK-10 renal and 8.07 µM in the test on U251 CNS.
For the compound `Cc1ccc([C@]2(C)CC[C@H](C)/C2=C\Br)c(O)c1`, the GI50 is 4.17 µM in the test on MOLT-4 leukemia; 2260 nM in the test on NCI/ADR-RES ovarian; 5.88 µM with OVCAR-8 ovarian; 3.4 µM in the test with SF-295 CNS; 2.82 µM in the test with SK-MEL-2 melanoma; 3.88 µM in the test on SK-MEL-5 melanoma. In addition, the GI50 is 2.87 µM with SR leukemia, 3.35 µM in the test with TK-10 renal and 4.03 µM in the test with U251 CNS. Moreover, the TGI in the test with MOLT-4 leukemia was found to be 16.8 µM; with NCI/ADR-RES ovarian it was 5.52 µM; with OVCAR-8 ovarian, 21.9 µM; in the test on SF-295 CNS, 11.6 µM; with SK-MEL-2 melanoma, 17.9 µM; in the test on SK-MEL-5 melanoma it was 15.5 µM. The results for the total growth inhibition concentration (TGI) with SR leukemia, in the test with TK-10 renal and in the test with U251 CNS were 11.5 µM, 14.1 µM and 14.4 µM, respectively.
`CNCCN=c1ccc2c3c1c(O)c1c(O)ccc(=O)c1c3[nH]n2CCNCCO`: the TGI with NCI/ADR-RES ovarian was 46.9 µM and 404 µM and 239 µM; with OVCAR-8 ovarian, 6.05 µM and 5.42 µM; in the test on SF-295 CNS, 0.794 µM and 0.811 µM; with SK-MEL-5 melanoma, 0.962 µM and 2.06 µM; with SNB-75 CNS, 387 nM and 149 nM; in the test with SR leukemia, 3.25 µM. Also, the TGI is 7.54 µM and 18.6 µM in the test on TK-10 renal; 0.287 µM with U251 CNS. In addition, the GI50 with OVCAR-8 ovarian is 0.174 µM and 0.366 µM; in the test on SF-295 CNS it was 0.0369 µM; in the test on SK-MEL-5 melanoma, 0.0847 µM and 0.139 µM; with SNB-75 CNS it was 29.4 nM and 77.2 nM; in the test on TK-10 renal it was 1.14 µM and 5.32 µM.
